T1: Ss gluconate dehydratase (Saccharolobus solfataricus, UniProt Q97U27)
T1 sequence (Q97U27 1-395): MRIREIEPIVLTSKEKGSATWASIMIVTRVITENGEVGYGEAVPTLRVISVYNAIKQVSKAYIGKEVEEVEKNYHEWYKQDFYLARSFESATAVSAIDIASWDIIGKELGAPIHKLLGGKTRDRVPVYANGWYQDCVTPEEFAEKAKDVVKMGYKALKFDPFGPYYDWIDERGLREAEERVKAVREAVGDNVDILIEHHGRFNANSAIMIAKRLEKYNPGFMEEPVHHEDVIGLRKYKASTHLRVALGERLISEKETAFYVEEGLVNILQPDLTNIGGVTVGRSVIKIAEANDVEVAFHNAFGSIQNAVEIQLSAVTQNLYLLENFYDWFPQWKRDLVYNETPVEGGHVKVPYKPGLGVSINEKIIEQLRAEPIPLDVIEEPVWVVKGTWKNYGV

B1: gluconate dehydratase: thermostable gluconate dehydratase purified from Sulfolobus solfataricus P2, SEQ ID NO:2, octamer (protein, listed as Sulfolobus solfataricus)
chain: T1 sequence (Q97U27 1-395)
modifications: octamer

Experiments:
Ss gluconate dehydratase [1] = biological target: T1, Ss gluconate dehydratase; test: Substrate specificities of Ss gluconate dehydratase (semicarbazide method); type: biochemical, Sulfolobus solfataricus; parameters: made in house; host or cells: Sulfolobus solfataricus cells (native source, not recombinant); conditions: for Reaction on substrate / Relative activity (%): 10 mM aldonic acid, 1 mM CoCl2, 50 mM Tri-HCl buffer pH 7.0, 30 min, 78 C; for Relative activity (%): relative to D-gluconate
Protocol: (§1) The semicarbazide method was performed as follows: an enzyme reaction of a total volume a 400 μl was incubated at 78° C. in 50 mM Tris-HCl buffer, pH 7.0, with 10 mM gluconate and an enzyme solution. After 30 min, the enzyme reaction was stopped by the addition of 100 μl 2.0 M HCl. To this solution, 300 μl of semicarbazide solution (1.0% (w/v) semicarbazide hydrochloride and 1.5% (w/v) sodium acetate dissolved in distilled water) was added and incubated at 30° C. for 15 min. The final reaction mixture was diluted with 500 μl distilled water and then measured at 250 nm. The absorbance coefficient of the semicarbazone formation toward 2-keto-3-deoxy gluconate (KDG) was taken to be 0.571×10^3 M^−1 cm^−1.
(§2) For analysis of substrate specificities of gluconate dehydrates, a 10 mM solution of each aldonic acid containing carbon chains ranging from C4 to C7 were incubated together with 40 μg/mL of purified protein. […] All experiments were performed in three plicate.

Ss gluconate dehydratase [2] = biological target: T1, Ss gluconate dehydratase
Protocol: as §1, §2
Biochemical and kinetic parameters for the enzyme were determined using the assay method described above under standard conditions.
Values for Vmax and Km were determined from Lineweaver bulk plots. The rate dependence on substrate concentration followed Michaelis-Meten kinetics.

[3] = type: physicochemical
Protocol: Enzyme thermostability was determined at 80, 90, and 100° C. by incubating enzyme solution (50 μg/ml) in 50 mM Tri-HCl (pH 7.2). At an appropriate time, samples were taken and completely cooled on ice and then measured for residual activities under standard conditions. The thermostability of purified gluconate dehydrates was measured at 80, 90, and 100° C.

[4] = Temperature profile of enzyme activity; type: biochemical
Protocol: The temperature profile for enzyme activity was determined between 40 and 100° C.

Row | Molecule | Reaction on substrate (Ss gluconate dehydratase [1]) | Relative activity (%) (Ss gluconate dehydratase [1]) | also measured
1 | O=C(O)[C@H](O)[C@@H](O)[C@@H](O)CO [L-arabonate] | No reaction on the following substrates: L-arabonate, D-xylonate, D-galacturonate, D-glucitol, D-mannonate, and D, L-glycerate. |  | 
2 | O=C[C@H](O)[C@@H](O)[C@@H](O)[C@H](O)C(=O)O [D-galacturonate] | No reaction on the following substrates: L-arabonate, D-xylonate, D-galacturonate, D-glucitol, D-mannonate, and D, L-glycerate. |  | 
3 | O=C(O)[C@H](O)[C@@H](O)[C@H](O)CO [D-xylonate] | No reaction on the following substrates: L-arabonate, D-xylonate, D-galacturonate, D-glucitol, D-mannonate, and D, L-glycerate. |  | 
4 | D-Galactoheptonate |  | 1.6% | 
5 | O=C(O)[C@@H](O)[C@@H](O)[C@H](O)[C@H](O)CO [D-mannonate] | No reaction on the following substrates: L-arabonate, D-xylonate, D-galacturonate, D-glucitol, D-mannonate, and D, L-glycerate. |  | 
6 | O=C(O)[C@@H](O)[C@H](O)[C@H](O)CO [D-Arabonate] |  | 0.7% | 
7 | L-isovalerate [D, L-isovalerate] |  | 0.25% | 
8 | O=C(O)[C@H](O)[C@@H](O)[C@H](O)[C@H](O)CO [D-Gluconate] |  | 100.0% | conversion (Ss gluconate dehydratase [1]; 10 mM substrate, 40 μg/mL purified protein, standard condition): 100%; Km (Ss gluconate dehydratase [2]; D-gluconate 0.1 to 40 mM as substrate, Lineweaver-Burk plots): 16.7 mM; turnover number (kcat) (Ss gluconate dehydratase [2]; D-gluconate as substrate): 333 s⁻¹; Vm (Ss gluconate dehydratase [2]; D-gluconate as substrate, Lineweaver-Burk plots): 34.5 units/mg
9 | O=C(O)[C@H](O)[C@@H](O)[C@@H](O)[C@H](O)CO [D-Galactonate] |  | 2.8% | 
10 | O=C(O)C(O)CO [D, L-glycerate] | No reaction on the following substrates: L-arabonate, D-xylonate, D-galacturonate, D-glucitol, D-mannonate, and D, L-glycerate. |  | 
11 | OC[C@@H](O)[C@@H](O)[C@H](O)[C@@H](O)CO [D-glucitol] | No reaction on the following substrates: L-arabonate, D-xylonate, D-galacturonate, D-glucitol, D-mannonate, and D, L-glycerate. |  | 
12 | B1 |  |  | enzyme activity after incubation at 90° C. ([3]; 90° C., 2 hour incubation, 50 μg/ml enzyme in 50 mM Tri-HCl pH 7.2): below 50%; thermostability at 80° C. ([3]; pH 7.2): very stable over 2 hours; Enzyme activity below 60° C. [4]: not detectable

From US8383375B2 (Posco, priority 2004, dated 2013)
